{
  "source": "paper PMC5572369",
  "about": "(Frontiers in Microbiology, 2017)",
  "key": {"PrbP [1]": {"molecular_target": "T1, PrbP (Candidatus Liberibacter asiaticus, UniProt A0ABM5NE52)", "T1 construct": "gene WSI_01420"}, "PrbP [2]": {"molecular_target": "T1, PrbP", "remark": "listed apart in the source"}},
  "data": [
    {"smiles": "Cc1c(Cl)cccc1Nc1ccccc1C(=O)O", "note": "[tolfenamic acid]", "values": [
      {"measurement": "concentration for complete disruption of PrbP/PrplK complex", "setting": "PrbP [1]", "value": 350, "unit": "µM"},
      {"measurement": "% decrease in transcription at 500 μM", "setting": "PrbP [2]", "value": 79, "unit": "%"}
    ]}
  ]
}
